Source: PMC6641755 (ACS Omega, 2017)

Assays:
Type in all cases: binding
[1] = target: Bruton's tyrosine kinase (Btk) kinase domain (Homo sapiens, UniProt Q06187); assay: ITC titration
BLK = BLK (Homo sapiens, UniProt P51451); assay: KinomeScan
[2] = target: T1, TYK2 (JH1domain-catalytic) (Homo sapiens, UniProt P29597); assay: KinomeScan
T1 sequence (P29597 897-1176 limits assumed): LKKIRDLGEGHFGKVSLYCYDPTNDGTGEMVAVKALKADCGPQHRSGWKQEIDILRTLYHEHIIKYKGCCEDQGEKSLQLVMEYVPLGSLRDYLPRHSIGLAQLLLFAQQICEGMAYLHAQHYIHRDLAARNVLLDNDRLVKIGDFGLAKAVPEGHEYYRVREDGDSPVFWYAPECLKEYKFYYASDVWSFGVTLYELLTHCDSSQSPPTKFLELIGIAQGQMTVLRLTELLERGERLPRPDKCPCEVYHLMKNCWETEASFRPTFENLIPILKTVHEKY

Bruton's tyrosine kinase (Btk) kinase domain, sequence (Q06187 387-569): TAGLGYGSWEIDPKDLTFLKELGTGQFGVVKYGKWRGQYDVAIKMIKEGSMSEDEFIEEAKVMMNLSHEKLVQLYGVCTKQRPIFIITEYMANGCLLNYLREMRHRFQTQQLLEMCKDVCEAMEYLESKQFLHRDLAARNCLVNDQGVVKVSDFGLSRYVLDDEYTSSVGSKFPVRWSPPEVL
BLK, sequence (P51451 2-505): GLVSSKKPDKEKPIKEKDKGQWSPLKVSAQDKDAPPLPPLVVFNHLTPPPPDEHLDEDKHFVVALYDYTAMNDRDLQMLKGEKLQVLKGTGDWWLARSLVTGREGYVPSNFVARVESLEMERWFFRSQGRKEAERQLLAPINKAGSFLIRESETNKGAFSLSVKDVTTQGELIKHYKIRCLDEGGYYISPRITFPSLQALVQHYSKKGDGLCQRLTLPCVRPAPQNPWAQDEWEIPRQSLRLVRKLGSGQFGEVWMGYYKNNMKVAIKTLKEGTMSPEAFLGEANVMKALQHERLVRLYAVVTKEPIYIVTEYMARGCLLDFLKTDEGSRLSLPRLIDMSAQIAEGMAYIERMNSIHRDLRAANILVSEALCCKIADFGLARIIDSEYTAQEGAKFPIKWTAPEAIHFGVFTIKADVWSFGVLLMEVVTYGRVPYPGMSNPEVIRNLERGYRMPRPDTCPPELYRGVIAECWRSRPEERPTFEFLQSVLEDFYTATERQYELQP

For `c1nc2c(Nc3ccc4c(c3)OCCO4)nc(Nc3ccc4c(c3)OCCO4)nc2[nH]1` [L6, N2,N6-bis(2,3-dihydrobenzo[b][1,4]dioxin-6-yl)-9H-purine-2,6-diamine], the Kd [1] was 250 nM, the activity at 10 µM (BLK) was 0.4% and the activity at 10 µM [2] was 0.8%.
